Measured values as given in patent US20170015555A1, “LONG-TERM PRESERVATION AND NOVEL APPLICATION OF CHLOROUS ACID AQUEOUS SOLUTION FORMULATION” (priority 2013, published 2017).

Key:
[1] = Deodorizing effect (chemical deodorization, gas detector tube); details: 400 ppm, spray 20 cc
Source text: (§1) In order to evaluate tests on deodorizing effects, the present Example examined deodorizing effects by using standards regarding air freshening and deodorization ([II]-2 Method of Testing Deodorizing Efficacy (Chemical Deodorization)) set forth by the Air Fresheners and Deodorizers Conference (http://www.houkou.gr.jp/) as the efficacy testing method, which is adopted by Japan Food Research Laboratories.
(§2) Ammonium odor: Ammonium Standard Solution II (Wako Pure Chemical Industries, for testing malodorous substances) Amine odor: methyl mercaptan standard solution (Wako Pure Chemical Industries, for testing malodorous substances) Sulfur odor: hydrogen sulfide (self-made, used hydrogen sulfide that was generated by adding sulfuric acid to zinc sulfide)
(§3) Gas detector tube made by GASTEC Corporation Ammonium odor: Detector tube ammonium 3 L made by GASTEC Corporation Amino odor: Detector tube methyl mercaptan 71 made by GASTEC Corporation Sulfur odor: Detector tube hydrogen sulfide 4 LL made by GASTEC Corporation
(§4) Tests were conducted in compliance with ([II]-2 Method of Testing Deodorizing Efficacy (Chemical Deodorization)) set forth by the Air Fresheners and Deodorizers Conference.
(§5) The tests were carried out by static culture method, using a commercially-available airbag with a spigot having a volume of about 10 L as test containers. The volume of airbags was appropriately changed in accordance with the size of the product.
(§6) The bags were filled with odorless air. Malodor concentrations were measured over time at room temperature (about 20° C.). (3 points or higher, detection tube method (FIG. 16), measured by an instrument analysis method or olfactory measurement method. When decrease in the blank was observed, the decrease was suitably corrected. When measuring by olfactory measuring method, the airbag spigot was opened for direct sniffing, or gas was transferred to an odor bag while wearing a mask to perform olfactory measurement in an autonomic respiration form. Measured air was not returned to the source).
For ammonium odor, the residual concentrations were detected and recorded for control (no specimen), 20 ml (cc) of distilled water, sodium hypochlorite (expressed as Na hypochlorite, 400 ppm), and chlorous acid aqueous solution (expressed as CAAS, 400 ppm) prior to spraying and 0 hour, 3 hours, 6 hours, 9 hours, and 24 hours after spraying.
It is known that an odorous substance adsorbs to an airbag and naturally decreases when the odorous substance is in the airbag. In this regard, the amount of loss due to such a natural decrease was measured to normalize the observed values in a control segment.
For the values, the values of the raw data were recorded. The concentration prior to spraying was adjusted and the controls were normalized to be 100. The results are shown in the following Table (In the Table, Cont indicates controls and h indicates time).

pathogenic microbes = assay: Sterilizing effect on floor surface when treating vomit, summary over all tested microbes and floors; format: cell-based
Source text: (§7) 1) Chlorous acid aqueous solution formulation (see Example 1: Table 11) Treatment sheet (material: 100% cotton): (about 27×40 cm) *Impregnated at a ratio of weight of treatment sheet (g): amount of liquid (ml)=1:3 2) Imitation vomit Miso solution: adjusted to pH of 2 with hydrochloric acid 3) Test Microbes that were Used E. coli: Escherichia coli IF03927 Staphylococcus aureus: Staphylococcus aureus IF0 12732 Thermoduric Microbes (Bacillus cereus): Bacillus cereus NBRC15305 Microbes of the genus Salmonella: Salmonella Enteritidis IF03313 Enterohemorrhagic Escherichia coli O157: Escherichia coli O157 Enterohemorrhagic Escherichia coli O111: Escherichia coli O111 Enterohemorrhagic Escherichia coli O26: Escherichia coli O26
(1) Imitation vomit was spread in an area about the size of an A4 sheet. (2) 5 agent solution-containing treatment sheets were laid thereon. (3) The imitation vomit was wiped off. (4) A cotton swab was soaked with sterile saline. A portion where imitation vomit was spread was scrubbed with the cotton swab to collect microbes remaining on the floor. After suspending in saline, the solution was spread on a petri dish and cultured. The number of each of the microbes was measured. […]
(1) Imitation vomit was spread in an area about the size of an A4 sheet. […] The number of each of the microbes was measured. […]

[2] = test system: Microbes of the genus Salmonella: Salmonella Enteritidis IF03313; format: cell-based; details: stored at 25° C. Day 0; 1000 ppm available chlorine
Source text: as §7
(1) Imitation vomit was spread in an area about the size of an A4 sheet. (2) 5 dry sheets were laid thereon. (3) An agent solution was poured on the dry sheets to wipe off the imitation vomit. (4) A cotton swab was soaked with sterile saline. A portion where imitation vomit was spread was scrubbed with the cotton swab to collect microbes remaining on the floor. After suspending in saline, the solution was spread on a petri dish and cultured. The number of each of the microbes was measured. (5) Test operations 3 and 4 were repeated a total of 7 times (repeated until the imitation vomit could be removed completely).

[3] = Deodorizing effect (chemical deodorization, gas detector tube); details: spray 20 cc
Source text: as §1, §2, §3, §4, §5, §6

OCl [Sodium Hypochlorite, sodium hypochlorite]
residual concentration of ammonium, after correction (Control = 100) ([1]; 0 h after spraying): 9 | residual concentration of ammonium, before correction ([1]; 0 h after spraying): 30 ppm | residual concentration of ammonium, after correction (Control = 100) ([1]; 3 h after spraying): 17 | residual concentration of ammonium, before correction ([1]; 3 h after spraying): 50 ppm | residual concentration of ammonium, after correction (Control = 100) ([1]; 6 h after spraying): 21 | residual concentration of ammonium, before correction ([1]; 6 h after spraying): 50 ppm | residual concentration of ammonium, after correction (Control = 100) ([1]; 9 h after spraying): 23 | residual concentration of ammonium, before correction ([1]; 9 h after spraying): 40 ppm | residual concentration of ammonium, after correction (Control = 100) ([1]; 24 h after spraying): 28 | residual concentration of ammonium, before correction ([1]; 24 h after spraying): 40 ppm | residual concentration of ammonium, after correction (Control = 100) ([1]; before spraying): 100 | residual concentration of ammonium, before correction ([1]; before spraying): 320 ppm | sterilization of pathogenic microbes on floor surface by wiping (pathogenic microbes; day 0): could be sterilized | sterilization of pathogenic microbes on floor surface by wiping (pathogenic microbes; preserved for 7 days): there were cases in which pathogenic microbes could not be sterilized | Number of Times Wiped 1 Time (remaining microbes) [2]: <10 | Number of Times Wiped 2 Times (remaining microbes) [2]: <10 | Number of Times Wiped 3 Times (remaining microbes) [2]: <10 | residual concentration of hydrogen sulfide, after correction (Control = 100) ([3]; Table 57, 0 h after spraying): 0 | residual concentration of hydrogen sulfide, before correction ([3]; Table 57, 0 h after spraying): 0 ppm | residual concentration of hydrogen sulfide, after correction (Control = 100) ([3]; Table 57, 3 h after spraying): 0 | residual concentration of hydrogen sulfide, before correction ([3]; Table 57, 3 h after spraying): 0 ppm | residual concentration of hydrogen sulfide, after correction (Control = 100) ([3]; Table 57, 6 h after spraying): 0 | residual concentration of hydrogen sulfide, before correction ([3]; Table 57, 6 h after spraying): 0 ppm | residual concentration of hydrogen sulfide, after correction (Control = 100) ([3]; Table 57, 9 h after spraying): 0 | residual concentration of hydrogen sulfide, before correction ([3]; Table 57, 9 h after spraying): 0 ppm | residual concentration of hydrogen sulfide, after correction (Control = 100) ([3]; Table 57, 24 h after spraying): 0 | residual concentration of hydrogen sulfide, before correction ([3]; Table 57, 24 h after spraying): 0 ppm | residual concentration of hydrogen sulfide, after correction (Control = 100) ([3]; Table 57, before spraying): 100 | residual concentration of hydrogen sulfide, before correction ([3]; Table 57, before spraying): 40 ppm | residual concentration of hydrogen sulfide, after correction (Control = 100) ([3]; Table 58, 0 h after spraying): 0 | residual concentration of hydrogen sulfide, before correction ([3]; Table 58, 0 h after spraying): 0 ppm | residual concentration of hydrogen sulfide, after correction (Control = 100) ([3]; Table 58, 3 h after spraying): 0 | residual concentration of hydrogen sulfide, before correction ([3]; Table 58, 3 h after spraying): 0 ppm | residual concentration of hydrogen sulfide, after correction (Control = 100) ([3]; Table 58, 6 h after spraying): 0 | residual concentration of hydrogen sulfide, before correction ([3]; Table 58, 6 h after spraying): 0 ppm | residual concentration of hydrogen sulfide, after correction (Control = 100) ([3]; Table 58, 9 h after spraying): 0 | residual concentration of hydrogen sulfide, before correction ([3]; Table 58, 9 h after spraying): 0 ppm | residual concentration of hydrogen sulfide, after correction (Control = 100) ([3]; Table 58, 24 h after spraying): 0 | residual concentration of hydrogen sulfide, before correction ([3]; Table 58, 24 h after spraying): 0 ppm | residual concentration of hydrogen sulfide, after correction (Control = 100) ([3]; Table 58, before spraying): 100 | residual concentration of hydrogen sulfide, before correction ([3]; Table 58, before spraying): 50 ppm
